Where “and” joins values, the source holds several entries; their conditions need not be identical. Equal values may be shown once. Read-outs that look alike come from different tables or passages of the source. Each block holds one molecule with its values, some of them ahead of it.
How the values were obtained:
[1] = in vivo; cited from earlier work
[2] = tested on: potassium stimulated release of [3H]ACh; conditions: in vitro; cited from earlier work
[3] = biological target: T1, AT2 receptor (Rattus norvegicus, UniProt P35351); assay: [125I]AII binding to AT2 receptor, rat adrenal cortical microsomes, in the presence of 10^-5 M DuP 753 (DuP […]-insensitive sites)
T1 construct: AT1 and AT2 receptor subtypes in rat adrenal cortex microsomes; from tissue; host or cells: rat adrenal cortical microsomes (13,000-102,000 g)
T1 sequence (P35351 1-363): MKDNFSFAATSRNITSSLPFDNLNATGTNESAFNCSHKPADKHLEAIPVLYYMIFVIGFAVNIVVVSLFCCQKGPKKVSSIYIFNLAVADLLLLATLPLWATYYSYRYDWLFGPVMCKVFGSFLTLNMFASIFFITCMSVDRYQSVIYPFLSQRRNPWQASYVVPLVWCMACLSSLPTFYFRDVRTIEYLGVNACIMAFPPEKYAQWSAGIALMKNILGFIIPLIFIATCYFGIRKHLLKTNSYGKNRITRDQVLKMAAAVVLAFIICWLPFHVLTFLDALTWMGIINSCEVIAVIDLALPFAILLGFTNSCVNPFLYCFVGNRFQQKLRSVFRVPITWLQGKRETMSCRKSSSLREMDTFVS
Method: (§1) Procedures for the preparation of adrenal cortical microsomes and details of the binding assays are described in Chiu et al. (1989) J. Pharmacol. Exp. Ther. 250:867-874. The same procedures and conditions were used for adrenal medullary microsomes. […] After 60 min. of incubation, the reaction was terminated by addition of cold assay buffer. The bound and free radioactivity were rapidly separated through glass-fiber filters, and the trapped radioactivity was determined by gamma counting.

[4] = tested on: AT1 receptor; assay: [125I]AII binding to AT1 receptor, rat adrenal cortical microsomes, in the presence of 10^-5 M EXP-655 (DuP 753-sensitive sites)
Method: as §1

[5] = tested on: pial arterial dilation; conditions: rat cranial window, cited from earlier work
[6] = tested on: trypsin activated collagenase in rat heart myocytes; conditions: cited from earlier work
[7] = tested on: AII receptors of rat adrenal cortex; assay: Total specific [125I]AII binding to rat adrenal cortical microsomes
Method: After 60 min. of incubation, the reaction was terminated by addition of cold assay buffer. The bound and free radioactivity were rapidly separated through glass-fiber filters, and the trapped radioactivity was determined by gamma counting.

[8] = tested on: AII receptor subtypes of rat adrenal cortical membranes; assay: [125I]AII binding to rat adrenal cortical membranes with and without DTT pretreatment
Source text: 102:685-696, except the above binding assay conditions were used.

[9] = tested on: chick chorioallantoic membrane; conditions: cited from earlier work
[10] = injected into the dorsal neostriatum; cited from earlier work
[11] = tested on: AII receptors of rat adrenal medulla; assay: [125I]AII binding to rat adrenal medullary microsomes; conditions: rat adrenal medullary microsomes; for binding resistant to displacement: of total binding, 60 min
Method: as §1

[12] = biological target: T2, AII receptors of rat adrenal medulla (Rattus norvegicus, UniProt P35351); conditions: autoradiography; DuP 753 or EXP-655 at 10^-6 M
T2 sequence (P35351 1-363): T1 sequence (P35351 1-363)
Method: (§2) Fresh tissue was frozen on powdered dry ice and stored at -70° C. until used. Sections were cut at 15 microns and thaw mounted onto gelatin subbed slides. […] Slides were placed under X-ray film (Kodak XAR-5) and exposed for 11/2 days before processing the film to produce the film autoradiograms. The slides were then fixed with paraformaldehyde vapor at 80° C. for two hours, dried under air, delipidated, and dipped in emulsion (Kodak NTB-2). The coated slides were exposed for 4-5 weeks, developed with Kodak D-19 and counter-stained with hemotoxylin-eosin to view the histology.

[13] = tested on: AII receptors of rat adrenal cortex; assay type: binding; conditions: autoradiography; DuP 753 or EXP-655 at 10^-6 M
Method: as §2

[14] = biological target: T2, AII receptors of rat adrenal medulla; assay: [125I]AII binding to rat adrenal medullary microsomes; parameters: from tissue; host or cells: rat adrenal medullary microsomes; conditions: rat adrenal medulla
Method: as §1

[15] = tested on: AII binding sites of rat aortic smooth muscle cells; assay: AII receptor binding in rat aortic smooth muscle cells
[16] = tested on: collagenase activity in cultured cardiac fibroblasts; conditions: cited from earlier work
[17] = tested on: AII binding sites in the brain; assay: Distribution of AII binding sites in brain slices
Method: as §2

[18] = tested on: rabbit aorta; assay: AII-induced rabbit aortic contractions; conditions: at concentrations of up to 10^-5 M
[19] = tested on: potassium current in cultured neurones; conditions: cited from earlier work
[20] = reported in U.S. Pat. No. 4,812,462; cited from earlier work
[21] = tested on: AII receptors of rat adrenal cortex; conditions: reported in U.S. Pat. No. 4,812,462; cited from earlier work
[22] = Blood pressure lowering in hypertensive animals (renal artery-ligated hypertensive rats); assay type: in vivo, rat; conditions: doses up to 30 mg/kg, IV
[23] = cited from earlier work; for effect on avoidance learning: IVT
[24] = cited from earlier work
[25] = rat adrenal cortex microsomes, in the presence of 10^-5 M EXP-655, read-out: IC50 AT1

Molecule: NCCCC[C@H](OP(=O)(O)CCCCc1ccccc1)C(=O)N1CCC[C@H]1C(=O)O [SQ 29852]
memory of previously learned tasks [1]: protective effects on memory of previously learned tasks

Molecule: [1-sarcosine, 8-threonine]angiotensin II
effect on potassium-stimulated release of ACh [2]: antagonized

Molecule: AI: AI (compared with AII) (DRVYIHPFHL; Angiotensin-1; UniProt P01019 25-34, looked up)
effect on potassium-stimulated release of ACh [2]: not AI

sensitivity of AT2 receptor to DTT [3]: resistant to DTT inactivation
Molecule: O[C@H](CS)[C@H](O)CS (racemic) [DTT, dithiothreitol]
sensitivity of AT1 receptor to DTT [4]: particularly sensitive to inactivation by DTT

Molecule: Cc1cc(Cn2cnc3c2CC(C(=O)O)N(C(=O)C(c2ccccc2)c2ccccc2)C3)ccc1N (stereo not shown) [PD123177]
block of pial arterial/arteriolar dilation [5]: block the pial arterial dilation | block of angiotensin II induced inhibition of trypsin activated collagenase [6]: block the angiotensin II induced inhibition of trypsin activated collagenase

concentration giving complete displacement of AII ([7]; rat adrenal cortical microsomes): 100 nM | IC50 ([7]; rat adrenal cortical microsomes, read-out: IC50, monophasic): 1 nM | preference for one AII receptor subtype relative to the other ([4]; AT1 vs AT2): no preference | effect of DTT on inhibition of AII binding ([8]; 5 mM DTT): not significantly altered by DTT
Molecule: CNCC(=O)N[C@@H](CCCN=C(N)N)C(=O)N[C@H](C(=O)N[C@@H](Cc1ccc(O)cc1)C(=O)N[C@H](C(=O)N[C@@H](Cc1cnc[nH]1)C(=O)N1CCC[C@H]1C(=O)N[C@@H](C)C(=O)O)C(C)C)C(C)C [Saralasin]

IC50 [3]: 70 nM | IC50 [4, 25]: > 10 µM
Molecule: O=C(O)C1Cc2cc(Oc3ccccc3)ccc2CN1C(=O)C(c1ccccc1)c1ccccc1 (stereo not shown) [Example 32, 2-Diphenylacetyl-6-phenoxy-1,2,3,4-tetrahydroisoquinoline-3-carboxylic acid]

Molecule: CGP42112A
block of angiotensin II-induced increase in microvascular density / angiogenesis [9]: block the increase in microvascular density

Molecule: NC(=O)[C@@H]1CCCN1C(=O)[C@H](Cc1cnc[nH]1)NC(=O)[C@@H]1CCC(=O)N1 [thyrotropin releasing hormone]
effect on retention of PA response [10]: no effect

Molecule: CCCCc1nc(Cl)c(CO)n1Cc1ccc(-c2ccccc2-c2nn[nH]n2)cc1 [DuP 753]
inhibition of binding ([11]; below 1×10^-6 M): 10% | binding resistant to displacement [11]: About 90% | labeling of the adrenal medulla [12]: not appreciably affected | plateau of constant binding ([7]; over a two-log concentration increase, 60 min): about 28 % of the total receptor-bound AII | inhibition of total AII binding ([7]; rat adrenal cortex): 80% | IC50 ([7]; rat adrenal cortex, read-out: IC50 on the sensitive sites): ~5 nM | IC50 ([7]; rat adrenal cortical microsomes, DuP 753-sensitive site, read-out: approximated IC50, first site of biphasic displacement): ~5 nM | labeling over the adrenal cortex [13]: significantly reduced | inhibition of AII binding [14]: essentially inactive as an antagonist | effect of DTT on inhibition of AII binding ([8]; 5 mM DTT): essentially abolished in the presence of DTT | sensitivity of AII binding sites, rat aortic smooth muscle cells [15]: primarily the DuP 753-sensitive AII binding sites (AT1)

Molecule: Cc1cc(Cn2cnc3c2CC(C(=O)O)N(C(=O)C(c2ccccc2)c2ccccc2)C3)ccc1N (stereo not shown) [EXP-655]
block of effect to inhibit collagenase activity [16]: shown to block | sensitivity of AII binding sites in the brain [17]: the majority of AII binding sites in the brain are DTT-insensitive, EXP-655-sensitive | binding resistant to displacement [11]: 10% | labeling of the adrenal medulla [12]: almost totally eliminated | block of angiotensin II-induced increase in microvascular density / angiogenesis [9]: shown to block | inhibition of the total specific AII binding ([7]; at 3×10^-5 M, rat adrenal cortical microsomes): 20% | inhibition of total AII binding ([7]; rat adrenal cortex): 20% | labeling over the adrenal cortex [13]: no apparent effect | block of pial arterial/arteriolar dilation ([5]; listed as EXP 655): shown to block | IC50 [4, 25]: ~300 µM and 300 µM | IC50 ([4]; rat adrenal cortex, read-out: inhibitory constant IC50, AT1 site): ~300 µM | antagonizing AII-induced rabbit aortic contractions [18]: inactive | block of effect to increase potassium current [19]: shown to block | inhibition of AII binding [14]: 90% | antihypertensive activity as reported [20]: antihypertensive agent | affinity for AII receptors as reported [21]: high affinity for AII receptors | lowering blood pressure [22]: inactive

Molecule: AII: octapeptide hormone which is a component of the renin-angiotensin system (DRVYIHPF; Angiotensin-2; UniProt P01019 25-32, looked up)
labeling of the adrenal medulla [12]: potently inhibited the labeling | effect on retention of PA response [10]: disruption in retention of a PA response | effect on basal levels of ACh release [2]: without effects on basal levels | effect on potassium-stimulated release of ACh [2]: reduced potassium-stimulated release of ACh | labeling over the adrenal cortex [13]: potently inhibited the labeling | enhancement of inhibitory potency by DTT ([8]; 5 mM DTT): 2.5 fold | IC50 ([8]; read-out: IC50 in the absence of DTT, without DTT): 1 nM

IC50 [3]: 60 nM | IC50 [4, 25]: > 10 µM
Molecule: COc1ccc(-c2cccc3c2CC(C(=O)O)N(C(=O)C(c2ccccc2)c2ccccc2)C3)cc1C (stereo not shown) [Example 25]

Molecule: lysine-8-vasopressin
effect on retention of PA response [10]: no effect

Molecule: C[C@H](CS)C(=O)N1CCC[C@H]1C(=O)O [captopril]
effect on avoidance learning [23]: prevented the renin-induced avoidance disruption | scopolamine-induced disruption of performance ([24]; daily treatment): prevented | light/dark habituation performance, rate of acquisition ([24]; subchronic treatment): increased the rate of acquisition

B1: renin: an enzyme involved in endogenous AII biosynthesis (protein, UniProt P00797 67-406, looked up)
Renin: LTLGNTTSSVILTNYMDTQYYGEIGIGTPPQTFKVVFDTGSSNVWVPSSKCSRLYTACVYHKLFDASDSSSYKHNGTELTLRYSTGTVSGFLSQDIITVGGITVTQMFGEVTEMPALPFMLAEFDGVVGMGFIEQAIGRVTPIFDNIISQGVLKEDVFSFYYNRDSENSQSLGGQIVLGGSDPQHYEGNFHYINLIKTGVWQIQMKGVSVGSSTLLCEDGCLALVDTGASYISGSTSSIEKLMEALGAKKRLFDYVVKCNEGPTLPDISFHLGGKEYTLTSADYVFQESYSSKKLCTLAIHAMDIPPPTGPTWALGATFIRKFYTEFDRRNNRIGFALAR
effect on avoidance learning [23]: disruption of avoidance learning | AII level in CSF after renin ([23]; increased from 40, renin IVT): about 5000 fmol per mL

From patent US5236934A, “1,2,3,4-tetrahydroisoquinolines useful in the treatment of CNS disorders” (E. I. Du Pont de Nemours and Company, priority 1992, dated 1993)
